Measurements: PMC10609270 (Molecules, 2023)
Entries after “also recorded” stand apart in the source; their conditions may differ. Like-named read-outs stand apart in the source and are kept apart here.

How the values were obtained:
SARS-CoV-2 [1] = experiment: microbe, parasite or virus in culture; type: cell-based
Vero CCL-81 cells [2] = experiment: cells; type: cell-based, African green monkey; conditions: non-infected Vero CCL-81, 48 h; for IC50: Chlorocebus sabaeus, DAPI, read-out: IC50 (ñ inf), relative cell nucleus number
Vero CCL-81 cells [3] = tested on: Vero CCL-81 cells
A549 cells = experiment: Sulforhodamine B (SRB) cytotoxicity assay in A549 cells; type: cell-based, human; conditions: for Cytotoxicity in A549 human lung cells: 48 h, SRB, five serial dilutions
Experimental: (§1) To determine the cytotoxic effect of the tested compounds, the SRB assay was performed according to the previously described protocols. The concentration of each compound that caused 50% of cell growth inhibition (GI50) was determined from the dose response curve. A549 cells were plated in 96-well plates at a previously determined optimal cell concentration (5 × 10^4 cells/mL) and incubated for 24 h. Then, cells were treated with different concentrations of the tested compounds for 48 h. The following procedure was accomplished as previously described. Using the Gen5^TM software (version 1.04.5), the absorbance was measured at 510 nm in a multiplate reader (Synergy^TM Mx, Biotek Instruments Inc., Winooski, VT, USA).

[4] = as above; type: cell-based, human; conditions: human, A549 cells; SRB assay, 48 h; read-out: Cytotoxic IC50 (A549 Human Lung Cells)
Experimental: as §1

ACE2 [5] = type: cell-based, African green monkey; conditions: compounds at IC50 (50 μM for 9); for ACE2 levels compared to vehicle: infected Vero CCL-81, Western blot; for ACE2 Levels (Vero CCL-81 Monkey Cells): infected cells
spike protein = type: cell-based, SARS-CoV-2
SARS-CoV-2 [6] = type: cell-based
ACE2 [7] = experiment: ACE2 expression levels in MDA-MB-231 cells (Western blot); type: cell-based, human; conditions: 10 μM, 48 h
Experimental: For protein expression analysis, MDA-MB-231 and Vero CCL-81 cells were seeded in 6-well plates and incubated for 24 h. Then, the cells were treated with the tested compounds at 10 μM or at their respective IC50. Cell pellets were collected after 48 h incubation, and the following lysis, quantification, and Western Blot procedures were performed as previously described, except for the following points: (i) no phosphatase inhibitor was used; (ii) a total of 15 μg of protein lysates obtained from MDA-MB-231 cells treatment or 50 μg of protein lysates obtained from Vero CCL-81 cells were loaded and separated in 10% SDS-Page gels; (iii) the transference to a nitrocellulose membrane (GE Healthcare Life science, Chalfont St Giles, UK; GE10600002) occurred for 1 h 45 min at 100 V; (iv) the primary antibodies (1:2000) used were: mouse anti-ACE2 monoclonal antibody (CL4035; Thermo Fischer Scientific; Waltham, MA, USA) and mouse anti-actin (sc-47778; Santa Cruz Biotechnology, Dallas, TX, USA).

in vitro = conditions: African green monkey
Vero CCL-81 cells [8] = experiment: cells; conditions: Chlorocebus sabaeus, 48 h, read-out: IC50 (inf), relative cell nucleus number
[9] = Severe acute respiratory syndrome coronavirus 2, in Primates, 48 h, read-out: Antiviral IC50 (Vero CCL-81 Monkey Cells)
[10] = Homo sapiens, A549, 48 h, read-out: GI50 (concentration that inhibits 50% of cell growth), A549, 48 h, SRB assay

SMILES	Effect on cell infection by SARS-CoV-2 (SARS-CoV-2 [1])	Relative cell number of non-infected cells (Vero CCL-81 cells [2])	Cytotoxicity in infected Vero CCL-81 cells (number of cell nuclei) (Vero CCL-81 cells [3])	IC50 (SARS-CoV-2 [1]; [9]) [µM]	ACE2 levels compared to vehicle (ACE2 [5])	ACE2 Levels (Vero CCL-81 Monkey Cells) (ACE2 [5])	Levels of spike protein compared to vehicle (spike protein)	Viral titer (SARS-CoV-2 [6])	other results
O=C(NC1c2ccccc2Oc2ccccc21)N(O)C1c2ccccc2Oc2ccccc21 [Compound 3]	did not inhibit cell infection	increased the relative cell number of non-infected cells	significantly higher cytotoxicity in infected cells compared to non-infected cells						
O=c1c2ccc(NCc3ccccc3)cc2oc2cc(OS(=O)(=O)C(F)(F)F)ccc12 [Compound 10]	did not inhibit cell infection	increased the relative cell number of non-infected cells							
C[C@H](CCC(=O)N1CCOCC1)[C@H]1CC[C@H]2[C@@H]3CC[C@@H]4C[C@H](O)CC[C@]4(C)[C@H]3C[C@H](O)[C@]12C [Compound 4]		increased the relative cell number of non-infected cells		24.1	did not alter ACE2 expression significantly	−	significantly decreased	1.5 × 10^3 FFU/mL	GI50 (A549 cells; A549, 48 h, SRB assay, read-out: GI50 (concentration that inhibits 50% of cell growth)): 19.8 µM; GI50 (A549 cells; [10]): 19.8 µM; IC50 at 48 h [4]: 19.8 µM; ACE2 expression levels in MDA-MB-231 cells (ACE2 [7]): did not significantly affect
O=c1c2ccc(OCc3cn(C4OC(COS(=O)(=O)O)C(OS(=O)(=O)O)C(OS(=O)(=O)O)C4OS(=O)(=O)O)nn3)cc2oc2cc(OCc3cn(C4OC(COS(=O)(=O)O)C(OS(=O)(=O)O)C(OS(=O)(=O)O)C4OS(=O)(=O)O)nn3)ccc12 (stereo not shown) [Compound 9]	reduced cell infection	increased the relative cell number of non-infected cells	without causing cytotoxicity		did not alter ACE2 expression significantly	−	did not cause any significant change	7.0 × 10^3 FFU/mL	IC50(viral), relative number of infected cells (SARS-CoV-2 [1]): not reached at the tested concentrations; Cytotoxicity in A549 human lung cells (A549 cells): did not exhibited cytotoxicity at the tested concentrations; Viral Titer and Spike Levels (Vero CCL-81 Monkey Cells) (SARS-CoV-2 [6]): −
Cc1cc(C)nc(NS(=O)(=O)c2ccc(NC3c4ccccc4Oc4ccccc43)cc2)n1 [Compound 2]			some cytotoxicity	11.9	did not alter ACE2 expression significantly	−	significantly decreased	1.7 × 10^3 FFU/mL	IC50 (Vero CCL-81 cells [2]): 19.8 µM; GI50 (A549 cells; [10]): 31.9 µM; IC50 at 48 h [4]: 31.9 µM; IC50 (in vitro): 17.2 µM; ACE2 expression levels in MDA-MB-231 cells (ACE2 [7]): did not significantly affect
O=c1c2ccccc2oc2c(O)c(OC3OC(COS(=O)(=O)O)C(OS(=O)(=O)O)C(OS(=O)(=O)O)C3OS(=O)(=O)O)ccc12 (stereo not shown) [Compound 8]	did not inhibit cell infection								
Cc1ccc(C(=O)Nc2ccc(CN3CCN(C)CC3)c(C(F)(F)F)c2)cc1C#Cc1cnc2cccnn12 [Ponatinib, reference compound]	did not inhibit cell infection		some cytotoxicity						IC50 (SARS-CoV-2 [1]; Severe acute respiratory syndrome coronavirus 2, 48 h, read-out: IC50(viral), relative number of infected cells): 0.93 µM; IC50 (Vero CCL-81 cells [2]): 1.36 µM; IC50 (Vero CCL-81 cells [8]): 0.7 µM
Nc1cccc2c1CCN(c1ccc3c(=O)c4ccc(N5CCc6c(N)cccc6C5)cc4oc3c1)C2 [Compound 5]	did not inhibit cell infection								
O=c1c2ccc(OCc3cn(C4OC(CO)C(O)C(O)C4O)nn3)cc2oc2cc(OCc3cn(C4OC(CO)C(O)C(O)C4O)nn3)ccc12 (stereo not shown) [Compound 6]	did not inhibit cell infection								
O=c1c2ccc(OCc3cn(C4OC(COS(=O)(=O)O)C(OS(=O)(=O)O)C(OS(=O)(=O)O)C4OS(=O)(=O)O)nn3)cc2oc2cc(OCc3cn(C4OC(COS(=O)(=O)O)C(OS(=O)(=O)O)C(OS(=O)(=O)O)C4OS(=O)(=O)O)nn3)ccc12 (stereo not shown) [Compound 7]		increased the relative cell number of non-infected cells	without causing cytotoxicity	31.7	slight decrease; also recorded: did not alter ACE2 expression significantly	−	did not cause any significant change	6.1 × 10^3 FFU/mL	Cytotoxicity in A549 human lung cells (A549 cells): did not exhibited cytotoxicity at the tested concentrations; Viral Titer and Spike Levels (Vero CCL-81 Monkey Cells) (SARS-CoV-2 [6]): −
Cc1ccnc(NS(=O)(=O)c2ccc(NC3c4ccccc4Oc4ccccc43)cc2)n1 [Compound 1]			some cytotoxicity	12.6	did not alter ACE2 expression significantly	−	significantly decreased	1.4 × 10^3 FFU/mL	IC50 (Vero CCL-81 cells [2]): 28.9 µM; Cytotoxicity in A549 human lung cells (A549 cells): did not exhibited cytotoxicity at the tested concentrations; GI50 (concentration that inhibits 50% of cell growth) (A549 cells; A549, 48 h, SRB assay): not reached with the concentrations tested; IC50 (in vitro): 18.4 µM; ACE2 expression levels in MDA-MB-231 cells (ACE2 [7]): did not significantly affect
